The record followed here is patent US20190315771A1, “NOVEL 2-ACYLAMINOTHIAZOLE DERIVATIVE AND PREPARATION METHOD THEREFOR AND USE THEREOF” (SICHUAN KELUN-BIOTECH BIOPHARMACEUTICAL CO., LTD., priority 2016, published 2019).

SMILES strings stand for the structures. Some results are limits rather than exact numbers.

Data set [1] addresses T1, human TPOR (Homo sapiens, UniProt P40238).
T1 construct: expressed in transfected cells; host or cells: mouse BAF3 cells
T1 sequence (P40238 26-635): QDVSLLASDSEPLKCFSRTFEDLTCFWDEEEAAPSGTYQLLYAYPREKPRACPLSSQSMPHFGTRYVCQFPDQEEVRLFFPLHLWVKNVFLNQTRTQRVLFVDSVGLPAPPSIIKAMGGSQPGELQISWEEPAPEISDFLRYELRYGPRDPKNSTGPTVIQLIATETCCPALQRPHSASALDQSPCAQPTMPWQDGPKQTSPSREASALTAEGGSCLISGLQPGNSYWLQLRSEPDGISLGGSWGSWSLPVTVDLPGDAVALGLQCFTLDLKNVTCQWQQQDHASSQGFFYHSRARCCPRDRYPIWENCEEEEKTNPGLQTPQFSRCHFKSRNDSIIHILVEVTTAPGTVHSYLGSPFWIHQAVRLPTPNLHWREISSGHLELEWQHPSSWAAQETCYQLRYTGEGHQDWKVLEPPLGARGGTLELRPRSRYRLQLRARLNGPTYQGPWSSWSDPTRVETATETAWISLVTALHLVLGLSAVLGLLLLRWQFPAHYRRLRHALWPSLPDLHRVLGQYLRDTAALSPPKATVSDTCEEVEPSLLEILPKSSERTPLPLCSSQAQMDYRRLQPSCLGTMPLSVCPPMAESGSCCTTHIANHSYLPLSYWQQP
Briefly: Proliferation of BAF3/TPOR cells (MTS method, OD490). It is filed as cell-based, mouse. Conditions: BAF3 cells stably expressing human TPOR, cultured with compound 24 h. The text has this: The TPO mimetic compound was synthesized in vitro, and the compound acted on the TPO receptor (TPOR) on the cell to stimulate cell proliferation and differentiation. The OD490 value was detected by the MTS method, and the more the number of cells, the larger the OD value, thereby detecting the response of the compound to cell proliferation and differentiation. The agonist concentration at which the increased signal arrived at the highest level was Emax, and the concentration of the compound at which the increased signal arrived at 50% of the signal of Emax was EC50. The activity of the compound was determinable by EC50, and the smaller the EC50, the higher the activity of the compound.
Mouse […] BAF3 stably expressing human TPOR were cultured in 1640 medium containing 10% FBS. On the day of the assay, the cells were counted and seeded in a 96-well plate at 1×10^4 cells/50 μL. 50 μL of different concentrations of the tested compound were added to the wells to a final concentration of 10000 nM, 3000 nM, 300 nM, 30 nM, 3 nM, 0.3 nM, 0.03 nM, 0.003 nM, 0.0003 nM, and the final concentration of DMSO was 1%. After the cells were cultured with the compound for 24 h at 37° C. in a 5% CO2 incubator, 10 μL of detection reagent (Promega, Cell Titer 96® Aqueous One Solution) was added. After mixing, the resulting mixture was incubated for 3 h in the incubator. The OD 490 was detected using a multifunctional automatic microplate reader, and the EC50 was fitted using GraphPad Prism 5 software.
(In general: Formazan colour is commonly taken as a measure of viable cells.)

For data set [2], the target named is hERG potassium channel (Homo sapiens, UniProt Q12809). In words: hERG test, electrophysiological manual patch clamp. It is filed as cell-based. Conditions: for IC50: manual patch clamp, IC50 >10 μM judged as no inhibitory effect on hERG. The text has this: In cardiomyocytes, the potassium channel encoded by hERG (human Ether-a-go-go Related Gene) mediated the delayed rectifier potassium current (lKr). The IKr inhibition was the most important mechanism for drug-induced QT prolongation and induction of arrhythmia.
The electrophysiological manual patch clamp was used to detect the effect of the tested compound on the hERG potassium channel.
In general terms: The hERG channel carries a current that helps repolarise heart muscle cells.

hERG potassium channel, sequence (Q12809 whole entry): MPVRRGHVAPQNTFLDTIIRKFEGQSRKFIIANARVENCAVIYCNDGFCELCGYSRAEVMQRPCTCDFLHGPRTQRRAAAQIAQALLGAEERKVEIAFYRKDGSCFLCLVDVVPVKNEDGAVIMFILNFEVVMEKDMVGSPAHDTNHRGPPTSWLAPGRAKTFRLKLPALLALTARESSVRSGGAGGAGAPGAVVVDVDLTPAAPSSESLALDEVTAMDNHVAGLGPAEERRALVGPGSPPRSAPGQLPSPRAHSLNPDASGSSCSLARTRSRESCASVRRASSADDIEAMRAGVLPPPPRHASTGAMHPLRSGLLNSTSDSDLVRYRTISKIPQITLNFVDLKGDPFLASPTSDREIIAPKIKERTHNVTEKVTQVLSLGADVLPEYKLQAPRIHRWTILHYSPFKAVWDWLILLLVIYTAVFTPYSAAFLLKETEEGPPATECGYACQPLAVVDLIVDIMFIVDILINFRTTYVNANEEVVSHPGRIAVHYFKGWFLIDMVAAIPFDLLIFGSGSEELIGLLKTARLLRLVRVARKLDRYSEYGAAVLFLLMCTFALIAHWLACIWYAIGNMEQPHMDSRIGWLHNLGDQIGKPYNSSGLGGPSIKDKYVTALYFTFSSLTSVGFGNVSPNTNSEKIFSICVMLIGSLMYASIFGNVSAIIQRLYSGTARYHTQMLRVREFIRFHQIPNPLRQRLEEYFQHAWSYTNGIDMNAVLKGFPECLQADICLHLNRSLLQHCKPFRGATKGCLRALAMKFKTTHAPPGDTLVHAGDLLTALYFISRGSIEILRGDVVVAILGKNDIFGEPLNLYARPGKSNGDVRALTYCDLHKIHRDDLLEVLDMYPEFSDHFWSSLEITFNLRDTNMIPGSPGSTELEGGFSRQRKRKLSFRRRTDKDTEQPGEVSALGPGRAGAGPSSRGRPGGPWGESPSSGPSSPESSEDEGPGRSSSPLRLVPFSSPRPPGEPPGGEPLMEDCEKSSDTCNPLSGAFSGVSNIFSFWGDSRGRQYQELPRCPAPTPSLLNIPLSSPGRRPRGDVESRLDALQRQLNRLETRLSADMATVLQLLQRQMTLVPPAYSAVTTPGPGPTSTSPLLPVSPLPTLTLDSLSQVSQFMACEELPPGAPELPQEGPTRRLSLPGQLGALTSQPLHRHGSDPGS

For `O=C(Nc1nc(-c2cc(Cl)cs2)c(N2CC3CCN(C4C[C@H]5CC[C@@H]4C5)C3C2)s1)c1cnc(N2CCC(C(=O)O)CC2)c(Cl)c1` (stereo in doubt) [Example 9, 1-[3-chloro-5-((4-(4-chlorothiophen-2-yl)-5-(1-(bicyclo[2.2.1]hept-2-yl)-hexahydropyrrolo[3,4-b]pyrrol-5(1H)-yl)thiazol-2-yl)carbamoyl)pyridin-2-yl]piperidine-4-carboxylic acid], in data set [1], the half-maximal effective concentration (EC50) (commonly the concentration that produces a half-maximal response) stood at 0.21 nM.

Consider `O=C(Nc1nc(-c2cc(Cl)cs2)c(N2CC3CCN(C4CCC4)C3C2)s1)c1cnc(N2CCC(C(=O)O)CC2)c(Cl)c1` (centres unmarked) [Example 2, 1-(3-chloro-5-((4-(4-chlorothiophen-2-yl)-5-(1-cyclobutyl-hexahydropyrrolo[3,4-b]-pyrrol-5(1H)-yl)-thiazol-2-yl)-carbamoyl)-pyridin-2-yl)-piperidine-4-carboxylic acid], for which the EC50 in data set [1] was determined as 0.21 nM.

For the molecule `O=C(Nc1nc(-c2cc(Cl)cs2)c(N2CC3CCN(C4CCCCC4)C3C2)s1)c1cnc(N2CCC(C(=O)O)CC2)c(Cl)c1` (centres unmarked) [Example 5, 1-(3-chloro-5-((4-(4-chlorothiophen-2-yl)-5-(1-cyclohexyl-hexahydropyrrolo[3,4-b]pyrrol-5(1H)-yl)-thiazol-2-yl)-carbamoyl)-pyridin-2-yl)-piperidine-4-carboxylic acid], in data set [1], the concentration giving a half-maximal response (EC50) amounted to 0.08 nM.

For the molecule `O=C(Nc1nc(-c2cc(Cl)cs2)c(N2CC3CCN(C4CCCCCC4)C3C2)s1)c1cnc(N2CCC(C(=O)O)CC2)c(Cl)c1` (centres unmarked) [Example 8, 1-(3-chloro-5-((4-(4-chlorothiophen-2-yl)-5-(1-cycloheptyl-hexahydropyrrolo[3,4-b]pyrrol-5(1H)-yl)-thiazol-2-yl)-carbamoyl)-pyridin-2-yl)-piperidine-4-carboxylic acid], in data set [1], the EC50 is 1.11 nM.

For the molecule `O=C(Nc1nc(-c2cc(Cl)cs2)c(N2CC3CCN(C4[C@H]5C[C@@H]6C[C@@H](C[C@H]4C6)C5)C3C2)s1)c1cnc(N2CCC(C(=O)O)CC2)c(Cl)c1` (stereo partly drawn) [Example 10, 1-(3-chloro-5-((4-(4-chlorothiophen-2-yl)-5-(1-(1R,3R,5R,7R)-adamantanyl-hexahydropyrrolo[3,4-b]pyrrol-5(1H)-yl)-thiazol-2-yl)carbamoyl)-pyridin-2-yl)-piperidine-4-carboxylic acid], the EC50 in data set [1] worked out at 0.1 nM.

On to `O=C(Nc1nc(-c2cc(Cl)cs2)c(N2CC3CCC2CN3C2CCCCC2)s1)c1cnc(N2CCC(C(=O)O)CC2)c(Cl)c1` (centres unmarked) [Example 29, 3′-chloro-5′-(4-(4-chlorothiophen-2-yl)-5-(5-cyclohexyl-2,5-diazabicyclo[2.2.2]octan-2-yl)-thiazol-2-carbamoyl)-3,4,5,6-tetrahydro-2H-[1,2′]bipyridine-4-carboxylic acid], for which the EC50 in data set [1] turned out to be 0.89 nM.

As to `C/C(=C\c1c(Cl)cc(C(=O)Nc2nc(-c3cccc(C(F)(F)F)c3)c(N3CC4CCN(C5CCCCC5)C4C3)s2)cc1Cl)C(=O)O` (centres unmarked) [Example 35, (E)-3-(2,6-dichloro-4-(5-(1-cyclohexyl-hexahydropyrrolo[3,4-b]pyrrol-5-yl)-4-(3-trifluoromethylphenyl)-thiazol-2-carbamoyl)-phenyl)-2-methyl-acrylic acid], the EC50 in data set [1] is 0.57 nM.

Consider `C/C(=C\c1c(Cl)cc(C(=O)Nc2nc(-c3cc(Cl)cs3)c(N3CC4CCN(C5CCCCC5)C4C3)s2)cc1Cl)C(=O)O` (centres unmarked) [Example 36, (E)-3-(2,6-dichloro-4-((4-(4-chlorothiophen-2-yl)-5-(1-cyclohexyl-hexahydropyrrolo[3,4-b]pyrrol-5(1H)-yl)-thiazol-2-yl)-carbamoyl)-phenyl)-2-methylacrylic acid], for which the EC50 in data set [1] was 0.1 nM.

In the case of `C/C(=C\c1c(Cl)cc(C(=O)Nc2nc(-c3cc(Cl)cs3)c(N3CC4CCN(C5CCC5)C4C3)s2)cc1Cl)C(=O)O` (centres unmarked) [Example 37, (E)-3-(2,6-dichloro-4-((4-(4-chlorothiophen-2-yl)-5-(1-cyclobutyl-hexahydropyrrolo[3,4-b]pyrrol-5(1H)-yl)-thiazol-2-yl)-carbamoyl)-phenyl)-2-methylacrylic acid], the EC50 in data set [1] amounted to 0.34 nM.

Regarding `C/C(=C\c1c(Cl)cc(C(=O)Nc2nc(-c3cc(Cl)cs3)c(N3CC4CCN(C5CC(F)(F)C5)C4C3)s2)cc1Cl)C(=O)O` (centres unmarked) [Example 38, (E)-3-(4-((5-(1-(3,3-difluorocyclobutyl)-hexahydropyrrolo[3,4-b]pyrrol-5(1H)-yl)-4-(4-chlorothiophen-2-yl)-thiazol-2-yl)-carbamoyl)-2,6-dichlorophenyl)-2-methylacrylic acid], the EC50 in data set [1] came to 0.43 nM.

Take `C/C(=C\c1c(Cl)cc(C(=O)Nc2nc(-c3cc(Cl)cs3)c(N3CC4CCN(C5CCCC5)C4C3)s2)cc1Cl)C(=O)O` (centres unmarked) [Example 40, (E)-3-(2,6-dichloro-4-((4-(4-chlorothiophen-2-yl)-5-(1-cyclopentyl-hexahydropyrrolo[3,4-b]pyrrol-5(1H)-yl)-thiazol-2-yl)-carbamoyl)-phenyl)-2-methylacrylic acid]: the EC50 in data set [1] came out at 0.07 nM.

`C/C(=C\c1c(Cl)cc(C(=O)Nc2nc(-c3cc(Cl)cs3)c(N3CC4CCN(C5CCCCCC5)C4C3)s2)cc1Cl)C(=O)O` (centres unmarked) [Example 44, (E)-3-(4-((5-(1-cycloheptyl-hexahydropyrrolo[3,4-b]pyrrol-5(1H)-yl)-4-(4-chlorothiophen-2-yl)-thiazol-2-yl)-carbamoyl)-2,6-dichlorophenyl)-2-methylacrylic acid]: in data set [1], the EC50 amounted to 0.13 nM.

For `C/C(=C\c1c(Cl)cc(C(=O)Nc2nc(-c3cc(Cl)cs3)c(N3CC4CCN(C5C[C@H]6CC[C@@H]5C6)C4C3)s2)cc1Cl)C(=O)O` (some centres unmarked) [Example 45, (E)-3-(4-((5-(1-(bicyclo[2.2.1]hept-2-yl)-hexahydropyrrolo[3,4-b]pyrrol-5(1H)-yl)-4-(4-chlorothiophen-2-yl)-thiazol-2-yl)-carbamoyl)-2,6-dichlorophenyl)-2-methylacrylic acid], the EC50 in data set [1] worked out at 0.59 nM.

In the case of `C/C(=C\c1c(Cl)cc(C(=O)Nc2nc(-c3cc(Cl)cs3)c(N3CC4CCN(C5[C@H]6C[C@@H]7C[C@@H](C[C@H]5C7)C6)C4C3)s2)cc1Cl)C(=O)O` (stereo partly drawn) [Example 46, (E)-3-(4-((5-(1-((1R,3R,5R,7R)-adamantan-2-yl)hexahydropyrrolo[3,4-b]pyrrol-5(1H)-yl)-4-(4-chlorothiophen-2-yl)thiazol-2-yl)carbamoyl)-2,6-dichlorophenyl)-2-methylacrylic acid], in data set [1], the EC50 was 0.08 nM.

As for `C/C(=C\c1c(Cl)cc(C(=O)Nc2nc(-c3cc(Cl)cs3)c(N3CCC4C(CCN4C4CCCCC4)C3)s2)cc1Cl)C(=O)O` (centres unmarked) [Example 48], the half-maximal effective concentration (EC50) in data set [1] came out at 0.6 nM.

With `C/C(=C\c1c(Cl)cc(C(=O)Nc2nc(-c3cc(Cl)cs3)c(N3C[C@H]4CCN(C5[C@H]6C[C@@H]7C[C@@H](C[C@H]5C7)C6)[C@H]4C3)s2)cc1Cl)C(=O)O` (stereo partly drawn) [Example 51, (E)-3-(4-((5-((3aR,6aR)-1-((1R,3R,5R,7R)-adamantan-2-yl)hexahydropyrrolo[3,4-b]pyrrol-5(1H)-yl)-4-(4-chlorothiophen-2-yl)thiazol-2-yl)carbamoyl)-2,6-dichlorophenyl)-2-methylacrylic acid], the concentration for a half-maximal effect (EC50) in data set [1] is 0.05 nM. Further, the “hERG potassium channel inhibition (judgement in words)” value in data set [2] (conclusion from Table 2) is “no hERG inhibition”. For the same molecule, the IC50 (commonly the concentration at which inhibition is half-maximal) in data set [2] was greater than 30 µM.

Take `C/C(=C\c1c(Cl)cc(C(=O)Nc2nc(-c3cc(Cl)cs3)c(N3C[C@@H]4CCN(C5[C@H]6C[C@@H]7C[C@@H](C[C@H]5C7)C6)[C@@H]4C3)s2)cc1Cl)C(=O)O` (stereo partly drawn) [Example 52, (E)-3-(4-((5-((3aS,6aS)-1-((1S,3S,5S,7S)-adamantan-2-yl)hexahydropyrrolo[3,4-b]pyrrol-5(1H)-yl)-4-(4-chlorothiophen-2-yl)thiazol-2-yl)carbamoyl)-2,6-dichlorophenyl)-2-methylacrylic acid]: the 50% effective concentration (EC50) in data set [1] came out at 0.13 nM. Further, the IC50 in data set [2] was determined as 7.9 µM.
